Here are results for one substance from patent US20260218197A1, “EXTRACELLULAR VESICLE SECRETION REDUCING AGENT FOR REDUCING EXTRACELLULAR VESICLE SECRETION, AND USE OF THE SAME” (THEORIA SCIENCE INC., priority 2020, published 2026).

In data set [1] the test system is colorectal cancer cells HCT116. The data set can be described thus: Amount of secreted EVs by the ExoScreen method. The data set is classed as cell-based, human. To be noted: HCT116 transformants, CMs and EV fractions, compared with transformants (NC). As to the method:
(§1) EV detection was performed using an AlphaLISA reagent (Perkin Elmer) composed of AlphaScreen streptavidin-coated donor beads (6760002), AlphaLISA unconjugated acceptor beads (6062011), and an AlphaLISA universal buffer (AL001F), a 96-well half-area white plate (6005560, Perkin Elmer), and a detection device EnSpire Alpha 2300 Mutilabel plate reader (Perkin Elmer). Specifically, the EV detection was performed as follows. Each well of the plate was filled with 5 μL of EVs or 10 μL of CM (cell culture supernatant), 10 μL of a 5 nmol/L biotinylated antibody solution prepared using the above-described buffer, and 10 μL of 50 µg/mL AlphaLISA acceptor bead-conjugated antibody. […] Next, luminescence in the wells of the plate was measured using the detection device with the excitation wavelength set to 680 nm and the emission detection wavelength set to 615 nm. […]
(§2) In a 6-well plate, 2 mL of the cancer cell suspension was seeded at 1.0×10^5 cells/well and incubated for 24 hours. […] 48 hours after the replacement, total RNA was extracted, and the expression of the gene of interest was measured by qPCR.
(§3) Colorectal cancer cells HCT116 and lung cancer cells A549 were each transfected with miR-891b. […] Then, according to the ExoScreen method described above, the amounts of the secreted EVs were measured by measuring the signal intensities. […]

Data set [2] concerns lung cancer cells A549. In words: Amount of secreted EVs by the ExoScreen method. To be noted: A549 transformants, CMs and EV fractions, compared with transformants (NC). The format is cell-based, human. As for the experimental part:
as §1, §2, §3

Data set [3] concerns PSAT1. In words: PSAT1 gene (qPCR) and protein (Western blotting) expression in transformants. The format is cell-based, human. To be noted: HCT116 and A549 transformants. As for the experimental part:
In a 6-well plate, 2 mL of the cancer cell suspension was seeded at 1.0×10^5 cells/well and incubated for 24 hours. Thereafter, 10 nmol/L of the intended nucleic acid molecules were added thereto, and the cells were transfected with the nucleic acid molecules using a transfection reagent (product name: DharmaFECT Transfection Reagent 1). The nucleic acid molecules used were the above-described miRNA and the above-described siRNA. After the incubation for 24 hours, the medium was replaced with the above-described advanced RPMI 1640 medium or advanced DMEM medium containing the antibiotic-antimycotic agent and 2 mmol/L-glutamine (Gibco). 48 hours after the replacement, total RNA was extracted, and the expression of the gene of interest was measured by qPCR. […]
First, expression of the PSAT1 gene was detected in the above-described transformants (miR-891b) and the control transformants (NC) therefor. Then, assuming that the expression levels in the transformants (NC) were 1, the relative values of the expression levels in the respective transformants (miR-891b) were determined. […] Also, for the transformants (miR-891b) and the control transformants (NC), the PSAT1 protein expression was detected by Western blotting. As a control, β-actin was also detected. […]

Data set [4] has as its system 3′ UTR of the human PSAT1 mRNA. The data set can be described thus: Dual-Luciferase reporter assay with PSAT1 3′ UTR in HEK293 cells. The data set is classed as cell-based. As to conditions: 48 hours after transfection. As for the experimental part:
Thus, the effect of miR-891b was examined using the wild-type PSAT1 gene in which the above-described 7-base region in the 3′ UTR is the wild-type sequence (SEQ ID NO: 3: AAGTTGC) and a mutant-type PSAT1 gene in which the above-described 7-base region in the 3′ UTR is a mutated sequence (SEQ ID NO: 4: TTCAACG). Specifically, the following experiment was performed. The wild-type PSAT1 gene or the mutant-type PSAT1 gene was subcloned into a plasmid vector psiCHECK2, and human embryonic kidney cells (HEK293 cells) were transfected with this recombinant vector together with miR-891b or the negative control miRNA using Lipofectamine 3000. 48 hours after the transfection, the luciferase activity of the transformants was quantified using a plate reader according to the operating procedure of a Dual-Luciferase Reporter Assay System.
The results obtained are shown in (D) of FIG. 3.
In general terms: In a reporter assay the amount or activity of a reporter protein is the signal.

Data set [5] relates to colorectal cancer cells HCT116. In words: CD63 immunofluorescence / coimmunostaining (intracellular EV accumulation). As to conditions: HCT116 transformants. The format is cell-based, human. As for the experimental part: (§4) Colorectal cancer cells HCT116 and lung cancer cells A549 were transfected with siRNA (siPSAT1) in the same manner as in the item (2) in Example A1, and EV biogenesis after PSAT1 silencing was examined. For the respective silenced transformants, CD63 and PSAT1 were examined by immunofluorescence.
(§5) Further, coimmunostaining of the EV marker CD63 and also an early endosome marker EEA1 or a late endosome marker Rab7 was conducted for the PSAT1-silenced transformants. As a result, no overlap was observed between EEA1 and CD63 in either the PSAT1-silenced transformants or the negative control transformants. […] On this account, the CD63 single-positive area was measured based on the intensity. […] This confirmed that EVs had accumulated in the cells.
(§6) Specifically, the test was performed in the following manner. Colorectal cancer cells HCT116 and lung cancer cells A549 were each seeded in a 6-well plate at 1.5×10^5 cells/well (Day 0), and incubated for 24 hours in a medium (DMEM with 10% FBS, 1×anti-anti medium). After the incubation (Day 1), the above-described medium was removed, and thereafter, a serine-deficient medium and an inhibitor solution were added to the wells. The inhibitor solution was prepared by dissolving NCT-503 in DMSO, and the concentration of the inhibitor per well was set to 2.5 μmol/L. Then, after another 48 hours of incubation (Day 3), the medium in the wells was collected and the cells in the wells were counted. As negative controls (NC), the test was performed in the same manner, except that DMSO was added instead of the inhibitor solution.
(§7) EVs accumulated in the cells were analyzed in the following manner. Specifically, the collected cells were immunostained, the CD63 single-positive area was measured based on the fluorescence intensity, and the fluorescence intensity measured in the area was divided by the number of nuclei to determine the amount of EVs accumulated in each cell. On the other hand, secreted EVs were collected from the collected medium and then subjected to the NTA. In the NTA, the amount of secreted EVs was determined as a relative value calculated assuming that the amount of the secreted EVs in the negative control was 1.

In data set [6] the test system is lung cancer cells A549. The description is as above. The format is cell-based, human. To be noted: A549 transformants. As to the method: as §4, §5, §6, §7

As for “miR-891b: nucleic acid molecule miRNA, SEQ ID NO: 1: GCAACUUACCUGAGUCAUUGA (Product No. 4464066, Ambion) (listed as RNA, chemistry not given here)”, the “relative value of the amount of secreted EVs (ExoScreen method)” value in data set [1] and in data set [2] was “significantly lower” throughout. The PSAT1 protein expression result in data set [3] (Western blotting, vs transformants (NC)) is listed as “reduced”. For the same substance, the PSAT1 gene expression result in data set [3] (relative to transformants (NC)) is “reduced”. Besides, the “PSAT1 expression level (relative luciferase activity)” value is reported as “did not reduce” in data set [4] (mutated sequence in miR-891b recognition region) and “significantly reduced” in data set [4] (wild-type PSAT1 3′ UTR sequence). The “CD63 (EV marker) in cytoplasm by immunofluorescence” value in data set [5] and in data set [6] was “accumulation of CD63” throughout.
